Patent publication US5158963A, “1-4-dihydropyridine derivative, process for preparing the same and pharmaceutical composition containing the same” (Kaken Pharmaceutical Co., Ltd., priority 1989, dated 1992)
“Also recorded” adds a separate entry of the source.

Columns and labels:
[1] = tested on: immobility time of forced swimming test; experiment: Activity against immobility time of forced swimming test in mice; type: in vivo, mouse (Slc:ICR male mice); conditions: oral
Method: In each group 6 Slc:ICR male mice weighing 25 to 32 g (5 weeks) were bred at the room temperature of 22° to 24° C. under an environment of 60% humidity for 1 week, and then the bred mice were subjected to the following test. The test was carried out by monitering action to voluntarily escape with TV camera when a mouse was put into a cylinder of which inner diameter was 11 cm wherein 17 cm of water being the temperature 25° C. as added. As indication immobility time for 6 minutes was measured. In the test mice were employed which were compulsorily swun for 6 minutes in once per day for continuous 3 day. The investigation for immobility time was carried out by measuring immobility time for 6 minutes 1 hour after oral administration of a test compound. Each of test compound was suspended in a 0.5% solution of methyl cellulose used as a control group. Significant difference is shown with the significance level (* : p<0.05) obtained by comparing data of control group by LSD method.

Acute toxicity in mice = experiment: Acute toxicity in mice; design: species or system mouse (Slc:ddy male mice); conditions: in vivo; mouse, oral administration, death rate after 7 days
Method: The compound No. 2 of the present invention was orally administered to 5-15 in each group Slc:ddy male mice weighing 24 to 32 g (5 weeks). With death rate after 7 days value of acute toxicity was measured.

blood pressure = experiment: Activity for blood pressure in rats; type: in vivo, rat (Wister male rats); conditions: oral; for Blood pressure: 100 mg/kg; for activity for decreasing blood pressure (in words): normal rats
Method: In each group 4 Wister male rats weighing 200 to 300 g (10 to 15 weeks) were employed. The day before a test, rats were anesthetized with eter, and a polyethylene tube was inserted into aorta abdominalis of a rat. The other end of the polyethylene tube was led out of the rat's body. The led polyethylene tube was connected with a pressure transducer (RM-85, made by Yamamoto Kohden). Blood pressure was measured under a condition of no restriction.

[2] = tested on: decapitation induced hypoxia; experiment: Activity against decapitation induced hypoxia in mice; type: in vivo, mouse (Slc:ddy male mice); conditions: oral; for inhibition in vivo at 10 mg/kg / inhibition in vivo at 30 mg/kg: Mus musculus, 1 h, 60 min before decapitation, duration of gasping vs control, read-out: Inhibition rate
Method: In each group five Slc:ddy male mice weighing 20 to 22 g (4 weeks) were employed. Sixty minutes after oral administration of a test compound, mice were decapitated with a guillotine. After the decapitation, duration of gasping of head was measured with a timer (CT-916 Type, made by HATTORI SEIKO CO., LTD.) gearing into the guillotine.
Each of test compound was suspended in a 0.5% solution of methyl cellulose and administered. Inhibition rate was calculated by comparing with a 0.5% aqueous solution of methyl cellulose as control. That is, the inhibition rate was calculated by the following formula. [formula]

[3] = tested on: tonic extensive convulsion (maximal electroshock-induced seizures); experiment: Activity against maximal electroshock-induced seizures in mice; type: in vivo, mouse (Slc:ddy male mice); conditions: oral
Description: In each group six Slc: ddy male mice weighing 26 to 31 g (5 weeks) were employed. Sixty minutes after oral administration of a test compound, corneal electrodes which were wet by physiological saline were contacted with both eyes of a mouse. Then, appearance of tonic extensive convulsion (TE) caused by electrifying under a stimulation condition of 50 mA, 1000 V and 0.2 sec by means of the apparatus of Woodburg & Davenport (made by Kyoto Keisokuki) was judged as indication.
Each of diphenylhydantoin, the compounds Nos. 2, 4, 5, 6, 7, 50, 51 and 52 of the present invention (refer Table 1, hereinafter the same) and nimodipine was suspended in a 0.5% solution of methyl cellulose to subject the test. Flunarizine was suspended in a 5% solution of gum arabic to subject the test.

[4] = tested on: tonic extensive convulsion caused by pentylenetetrazole; experiment: Activity against convulsion caused by pentylenetetrazole in mice; type: in vivo, mouse (Slc:ddy male mice); conditions: oral
Method: In each group 4-8 Slc:ddy male mice weighing 24 to 32 g (5 weeks) were bred at room temperature of 22° to 24° C. under an environment of 60% humidity for 1 week, and then the bred mice were subjected to the following test. The test was carried out as the following procedure. One hour after the oral administration of a test compound, 40 mg/kg of pentylenetetrazole was administered in a caudal vein. Appearance of tonic extensive convulsion caused by pentylenetetrazole was measured as indication, and anticonvulsive activity was examined. Each of test compound was suspended in a 0.5% solution of methyl cellulose used as a control group.

[5] = administered over an extended period of time; cited from earlier work
[6] = in vivo; cited from earlier work

C#Cc1cccc(C2C(C(=O)OCC)=C(C)NC(C)=C2C(=O)OCC)c1 [Compound No. 2, 3,5-Diethoxycarbonyl-1,4-dihydro-2,6-dimethyl-4-(3ethynylphenyl)pyridine]
effect on the immobility time (in words) ([1]; 100 mg/kg): showed the effect on the immobility time
effect on immobility time of forced swimming test (in words) [1]: immobility time of forced swimming test reduced
LD50 at 168 h (Acute toxicity in mice): 534 mg/kg
Blood pressure (blood pressure; after 15 min.): 100.6 mmHg
Blood pressure (blood pressure; after 30 min.): 98.4 mmHg
Blood pressure (blood pressure; after 60 min.): 94.8 mmHg
Blood pressure (blood pressure; after 120 min.): 92.9 mmHg
activity for decreasing blood pressure (in words) (blood pressure): very weak activity for decreasing blood pressure
inhibition in vivo at 10 mg/kg [2]: 10.8%
inhibition in vivo at 30 mg/kg [2]: 20.5%
effect in decapitation induced hypoxia (in words) [2]: same extent effect as that of flunarizine; also recorded: stronger effect than that of nimodipine and that of nicardipine
inhibitory activity against tonic extensive convulsion (share of cases) ([3]; 100 mg/kg): two thirds
inhibitory activity against tonic extensive convulsion (share of cases) ([3]; 200 mg/kg): all cases
effect on tonic extensive convulsion caused by pentylenetetrazole (in words) [4]: inhibited the tonic extensive convulsion; also recorded: approximately the same extent of the effect of the positive control drug diphenylhydantoin; also recorded: stronger effect than the effect of nimodipine and the effect of nicardipine

C#Cc1cccc(C2C(C(=O)OCC)=C(C)NC(C)=C2C(=O)OC(C)C)c1 (stereo not shown) [Compound No. 4, 5-Ethoxycarbonyl-3-isopropoxycarbonyl-1,4-dihydro-2,6-dimethyl-4-(3-ethynylphenyl)pyridine]
effect on the immobility time (in words) ([1]; 50 mg/kg): showed the effect on the immobility time
effect on the immobility time (in words) ([1]; 100 mg/kg): showed the effect on the immobility time
effect on the immobility time (in words) ([1]; 200 mg/kg): showed the effect on the immobility time
effect on immobility time of forced swimming test (in words) [1]: immobility time of forced swimming test reduced
Blood pressure (blood pressure; after 15 min.): 100.1 mmHg
Blood pressure (blood pressure; after 30 min.): 97.2 mmHg
Blood pressure (blood pressure; after 60 min.): 93.4 mmHg
Blood pressure (blood pressure; after 120 min.): 90.5 mmHg
activity for decreasing blood pressure (in words) (blood pressure): very weak activity for decreasing blood pressure
inhibition in vivo at 10 mg/kg [2]: 8.8%
inhibition in vivo at 30 mg/kg [2]: 25.7%
effect in decapitation induced hypoxia (in words) [2]: same extent effect as that of flunarizine; also recorded: stronger effect than that of nimodipine and that of nicardipine
inhibitory activity against tonic extensive convulsion (share of cases) ([3]; 50 mg/kg): two thirds
inhibitory activity against tonic extensive convulsion (share of cases) ([3]; 100 mg/kg): five sixths

Fc1ccc(C(c2ccc(F)cc2)N2CCN(C/C=C/c3ccccc3)CC2)cc1 [Flunarizine, reference compound]
effect on immobility time of forced swimming test (in words) [1]: ineffective; also recorded: no effect
side effects caused by central nervous system inhibitory activity [5]: Parkinson symptom and depression symptom
inhibition in vivo at 10 mg/kg [2]: 12.1%
inhibition in vivo at 30 mg/kg [2]: 24.3%
inhibitory activity against tonic extensive convulsion (share of cases) ([3]; 100 mg/kg): a third
inhibitory activity against tonic extensive convulsion (share of cases) ([3]; 200 mg/kg): five sixths

COC(=O)C1=C(C)NC(C)=C(C(=O)OC)C1c1ccccc1[N+](=O)[O-] [Nifedipine, dimethyl 2,6-dimethyl-4-(2-nitrophenyl)-1,4-dihydropyridine-3,5-dicarboxylate]
vasodepressor activity and coronary vasodilator activity [6]: strong

COCCOC(=O)C1=C(C)NC(C)=C(C(=O)OC(C)C)C1c1cccc([N+](=O)[O-])c1 (stereo not shown) [Nimodipine, isopropyl, 2-methoxyethyl 2,6-dimethyl-4-(3-nitrophenyl)-1,4-dihydropyridine-3,5-dicarboxylate, reference compound]
effect on immobility time of forced swimming test (in words) [1]: ineffective; also recorded: no effect
inhibition in vivo at 10 mg/kg [2]: 2.1%
inhibition in vivo at 30 mg/kg [2]: 9.3%
inhibitory activity against tonic extensive convulsion (share of cases) ([3]; 200 mg/kg): No inhibitory activity
effect on maximal electroshock-induced seizures (in words) [3]: ineffective
